From patent publication US9376418B2, “Substituted pyridine spleen tyrosine kinase (SYK) inhibitors” (Merck Sharp & Dohme Corp., priority 2012, dated 2016)
pIC50: −log10 of the molar value.

These compounds were tested against T1, recombinant human GST-SYK (Homo sapiens, UniProt P43405) (assay: Homogeneous Time-Resolved Fluorescence (HTRF) assay for the recombinant human Syk enzyme). Conditions: HTRF assay, recombinant human GST-SYK; IC50 given as class symbols; read-out: rhSYK Activity.
T1 construct: purchased Carna Biosciences 08-176
Assay type: biochemical
Experimental: Homogeneous Time-Resolved Fluorescence (HTRF) Assay for the Recombinant Human Syk Enzyme
A recombinant GST-hSYK fusion protein was used to measure potency of compounds to inhibit human Syk activity. The recombinant human GST-SYK (Carna Biosciences #08-176) ([…]) was incubated with various concentrations of the inhibitor diluted in DMSO (0.1% final concentration) for 10 minutes at room temperature in 15 mM Tris-HCl (pH 7.5), 0.01% tween 20, 2 mM DTT in 384 well plate format. To initiate the reaction the biotinylated substrate peptide (250 nM final concentration) that contains the phosphorylation site for Syk was added with magnesium (5 mM final concentration) and ATP (25 μM final concentration). Final volume of the reaction was 10 μL. Phosphorylation of the peptide was allowed to proceed for 45′ at room temperature. To quench the reaction and detect the phosphorylated product, 2 nM of a Europium-anti-phosphotyrosine antibody (Perkin Elmer #AD0161) and 70 nM SA-APC (Perkin-Elmer #CR130-100) were added together in 15 mM Tris pH 7.5, 40 mM EDTA, 0.01% tween 20. Final volume of the quenching solution was 10 μL. The resulting HTRF signal was measured after 30 minutes on an EnVision (Perkin-Elmer) reader using a time-resolved fluorescence protocol.

pIC50	Compound
> 7.00	Cc1cc(Nc2nccc(C(F)(F)F)n2)cc(-c2ccc(N3CCCC3C(N)=O)nc2)c1 (racemic) [Example 7.38, 1-[5-(3-methyl-5-{[4-(trifluoromethyl)pyrimidin-2-yl]amino}phenyl)pyridin-2-yl]prolinamide]
> 7.00	Cc1cc(Nc2nccc(C(F)(F)F)n2)cc(-c2ccc(N3CCCC3C(=O)O)nc2)c1 (racemic) [Example 7.119, 1-[5-(3-methyl-5-{[4-(trifluoromethyl)pyrimidin-2-yl]amino}phenyl)pyridin-2-yl]proline]
6.00 to 7.00	CNC(=O)C1CCCN1c1cc(-c2cc(C)cc(Nc3nccc(C(F)(F)F)n3)c2)ccn1 (racemic) [Example 15.81, N-methyl-1-[4-(3-methyl-5-{[4-(trifluoromethyl)pyrimidin-2-yl]amino}phenyl)pyridin-2-yl]prolinamide]
> 7.00	Cc1cc(Nc2nccc(C(F)(F)F)n2)cc(-c2ccc(N3CCCC3C(=O)O)nc2)c1 (single isomer, unassigned) [Example 7.122, 1-[5-(3-methyl-5-{[4-(trifluoromethyl)pyrimidin-2-yl]amino}phenyl)pyridin-2-yl]proline]

The next lines start with the compound.

Compound	pIC50
CCCCOC(=O)[C@H]1CC[C@H](C(C)(O)c2ccc(-c3cc(C)cc(Nc4nccc(C5CC5)n4)c3)cn2)CC1 (relative stereo) [Example 9.48, butyl trans-4-[1-(5-{3-[(4-cyclopropylpyrimidin-2-yl)amino]-5-methylphenyl}pyridin-2-yl)-1-hydroxyethyl]cyclohexanecarboxylate]	6.00 to 7.00
CCCCOC(=O)[C@H]1CC[C@H](C(C)(O)c2ccc(-c3cc(C)cc(Nc4nccc(OC)n4)c3)cn2)CC1 (relative stereo) [Example 9.49, butyl trans-4-[1-hydroxy-1-(5-{3-[(4-methoxypyrimidin-2-yl)amino]-5-methylphenyl}pyridin-2-yl)ethyl]cyclohexanecarboxylate]	> 7.00
CC1(C)CC(O)(c2ccc(-c3cc(F)cc(Nc4nccc(C(F)(F)F)n4)c3)cn2)CCC1C(=O)O (single isomer, unassigned) [Example 9.4, (1S,4R or 1R,4S)-4-[5-(3-fluoro-5-{[4-(trifluoromethyl)pyrimidin-2-yl]amino}phenyl)pyridin-2-yl]-4-hydroxy-2,2-dimethylcyclohexanecarboxylic acid]	> 7.00
Cc1cc(Nc2nccc(C(F)(F)F)n2)cc(-c2ccc(C3(O)CCC(C(=O)O)C(C)(C)C3)nc2)c1 (single isomer, unassigned) [Example 9.8, (1S,4R or 1R,4S)-4-hydroxy-2,2-dimethyl-4-[5-(3-methyl-5-{[4-(trifluoromethyl)pyrimidin-2-yl]amino}phenyl)pyridin-2-yl]cyclohexanecarboxylic acid]	> 7.00
Cc1cc(Nc2nccc(C(F)(F)F)n2)cc(-c2ccc(C34CCC(C(=O)O3)C(C)(C)C4)nc2)c1 (single isomer, unassigned) [Example 9.9, (1R,4S or 1S,4R)-5,5-dimethyl-1-[5-(3-methyl-5-{[4-(trifluoromethyl)pyrimidin-2-yl]amino}phenyl)pyridin-2-yl]-2-oxabicyclo[2.2.2]octan-3-one]	6.00 to 7.00
Cc1cc(Nc2nccc(C(F)(F)F)n2)cc(-c2ccc(C34CCC(C(=O)O3)C(C)(C)C4)nc2)c1 (single isomer, unassigned) [Example 9.10, (1S,4R or 1R,4S) 5,5-dimethyl-1-[5-(3-methyl-5-{[4-(trifluoromethyl)pyrimidin-2-yl]amino}phenyl)pyridin-2-yl]-2-oxabicyclo[2.2.2]octan-3-one]	6.00 to 7.00
CC1(C)CC(O)(c2ccc(-c3cc(Nc4nccc(C(F)(F)F)n4)cc(C(F)F)c3)cn2)CCC1C(=O)O (single isomer, unassigned) [Example 9.13, (1S,4R or 1R,4S)-4-{5-[3-(difluoromethyl)-5-{[4-(trifluoromethyl)pyrimidin-2-yl]amino}phenyl]pyridin-2-yl}-4-hydroxy-2,2-dimethylcyclohexanecarboxylic acid]	> 7.00
